Laboratory results from ChEMBL document CHEMBL1201861, “Genomics of Drug Sensitity in Cancer screening data, Wellcome Trust Sanger Institute”.
pIC50: −log10 of the molar value.

Legend:
Test in all cases: cells
D-247MG = type: functional, cell-based; settings: Homo sapiens
Description: SANGER: Inhibition of human D-247MG cell growth in a cell viability assay.

D-502MG = type: functional, cell-based, Homo sapiens; settings: Homo sapiens, D-502MG
Description: SANGER: Inhibition of human D-502MG cell growth in a cell viability assay.

DOHH-2 = type: functional, cell-based, Homo sapiens; settings: Homo sapiens, DOHH-2;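 further: growth inhibition of human DOHH-2 cells, read out with a cell viability assay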
Description: SANGER: Inhibition of human DOHH-2 cell growth in a cell viability assay.

DOK = type: functional, cell-based; settings: Homo sapiens;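 further: cell viability assay read-out, values reflect inhibition of cell growth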
Description: SANGER: Inhibition of human DOK cell growth in a cell viability assay.

DU-4475 = type: functional, cell-based, Homo sapiens; settings: Homo sapiens, DU-4475
Description: SANGER: Inhibition of human DU-4475 cell growth in a cell viability assay.

EM-2 = type: functional, cell-based, Homo sapiens; settings: Homo sapiens, EM-2;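 further: growth inhibition of EM-2 cells, read out with a cell viability assay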
Description: SANGER: Inhibition of human EM-2 cell growth in a cell viability assay.

ES7 = type: functional, cell-based, Homo sapiens; settings: Homo sapiens, ES7;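 further: growth inhibition of cultured human ES7 cells, read out as cell viability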
Description: SANGER: Inhibition of human ES7 cell growth in a cell viability assay.

EW-11 = type: functional, cell-based, Homo sapiens; settings: Homo sapiens, EW-11;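 further: growth inhibition of human EW-11 cells, measured with a cell viability assay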
Description: SANGER: Inhibition of human EW-11 cell growth in a cell viability assay.

EW-16 = type: functional, cell-based, Homo sapiens; settings: Homo sapiens, EW-16;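 further: growth inhibition of human EW-16 cells, read out as cell viability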
Description: SANGER: Inhibition of human EW-16 cell growth in a cell viability assay.

GAK = type: functional, cell-based, Homo sapiens; settings: Homo sapiens, GAK;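 further: cell growth inhibition read out by a cell viability assay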
Description: SANGER: Inhibition of human GAK cell growth in a cell viability assay.

HDLM-2 = type: functional, cell-based, Homo sapiens; settings: Homo sapiens, HDLM-2;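 further: cell viability assay measuring suppression of HDLM-2 proliferation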
Description: SANGER: Inhibition of human HDLM-2 cell growth in a cell viability assay.

HEL = type: functional, cell-based, Homo sapiens; settings: Homo sapiens, HEL;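 further: growth inhibition of HEL cells, read out with a cell viability assay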
Description: SANGER: Inhibition of human HEL cell growth in a cell viability assay.

HT = type: functional, cell-based, Homo sapiens; settings: Homo sapiens, HT
Description: SANGER: Inhibition of human HT cell growth in a cell viability assay.

IST-MEL1 = type: functional, cell-based, Homo sapiens; settings: Homo sapiens, IST-MEL1;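 further: growth inhibition of the cell line, read out with a cell viability assay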
Description: SANGER: Inhibition of human IST-MEL1 cell growth in a cell viability assay.

IST-SL1 = type: functional, cell-based, Homo sapiens; settings: Homo sapiens, IST-SL1;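 further: growth inhibition of human IST-SL1 cells, read out with a cell viability assay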
Description: SANGER: Inhibition of human IST-SL1 cell growth in a cell viability assay.

KGN = type: functional, cell-based, Homo sapiens; settings: Homo sapiens, KGN;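 further: growth inhibition of KGN cells, read out with a cell viability assay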
Description: SANGER: Inhibition of human KGN cell growth in a cell viability assay.

KINGS-1 = type: functional, cell-based, Homo sapiens; settings: Homo sapiens, KINGS-1;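 further: cell viability assay measuring suppression of KINGS-1 cell growth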
Description: SANGER: Inhibition of human KINGS-1 cell growth in a cell viability assay.

KLE = type: functional, cell-based; settings: Homo sapiens;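 further: growth inhibition of human KLE cells, read out with a cell viability assay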
Description: SANGER: Inhibition of human KLE cell growth in a cell viability assay.

LAN-6 = type: functional, cell-based, Homo sapiens; settings: Homo sapiens, LAN-6;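 further: growth inhibition of LAN-6 cells, determined with a cell viability assay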
Description: SANGER: Inhibition of human LAN-6 cell growth in a cell viability assay.

LC-2-ad = type: functional, cell-based, Homo sapiens; settings: Homo sapiens, LC-2-ad;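 further: growth inhibition of human LC-2-ad cells, read out with a cell viability assay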
Description: SANGER: Inhibition of human LC-2-ad cell growth in a cell viability assay.

LS-513 = type: functional, cell-based, Homo sapiens; settings: Homo sapiens, LS-513
Description: SANGER: Inhibition of human LS-513 cell growth in a cell viability assay.

MMAC-SF = type: functional, cell-based; settings: Homo sapiens;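 further: growth inhibition of human MMAC-SF cells, read out with a cell viability assay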
Description: SANGER: Inhibition of human MMAC-SF cell growth in a cell viability assay.

MPP-89 = type: functional, cell-based, Homo sapiens; settings: Homo sapiens, MPP-89;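 further: growth inhibition of human MPP-89 cells, read out with a cell viability assay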
Description: SANGER: Inhibition of human MPP-89 cell growth in a cell viability assay.

MSTO-211H = type: functional, cell-based, Homo sapiens; settings: Homo sapiens, MSTO-211H
Description: SANGER: Inhibition of human MSTO-211H cell growth in a cell viability assay.

NB5 = type: functional, cell-based, Homo sapiens; settings: Homo sapiens, NB5;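 further: growth inhibition of NB5 cells, read out as cell viability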
Description: SANGER: Inhibition of human NB5 cell growth in a cell viability assay.

NCI-H1092 = type: functional, cell-based, Homo sapiens; settings: Homo sapiens, NCI-H1092;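 further: cell growth inhibition measured with a cell viability assay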
Description: SANGER: Inhibition of human NCI-H1092 cell growth in a cell viability assay.

NCI-H1395 = type: functional, cell-based, Homo sapiens; settings: Homo sapiens, NCI-H1395;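 further: cell viability assay read-out quantifying reduced proliferation of human NCI-H1395 cells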
Description: SANGER: Inhibition of human NCI-H1395 cell growth in a cell viability assay.

NCI-H1581 = type: functional, cell-based, Homo sapiens; settings: Homo sapiens, NCI-H1581;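 further: cell growth inhibition read out by a viability assay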
Description: SANGER: Inhibition of human NCI-H1581 cell growth in a cell viability assay.

NCI-H1623 = type: functional, cell-based; settings: Homo sapiens;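 further: cell viability assay used as the read-out for growth inhibition of NCI-H1623 cells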
Description: SANGER: Inhibition of human NCI-H1623 cell growth in a cell viability assay.

NCI-H1770 = type: functional, cell-based, Homo sapiens; settings: Homo sapiens, NCI-H1770;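 further: growth inhibition of NCI-H1770 cells determined with a viability readout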
Description: SANGER: Inhibition of human NCI-H1770 cell growth in a cell viability assay.

NCI-H1838 = type: functional, cell-based, Homo sapiens; settings: Homo sapiens, NCI-H1838;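 further: growth inhibition of NCI-H1838 cells, determined with a cell viability readout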
Description: SANGER: Inhibition of human NCI-H1838 cell growth in a cell viability assay.

NCI-H226 = type: functional, cell-based, Homo sapiens; settings: Homo sapiens, NCI-H226;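 further: cell viability read-out used to gauge growth inhibition of the cells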
Description: SANGER: Inhibition of human NCI-H226 cell growth in a cell viability assay.

OCI-AML2 = type: functional, cell-based, Homo sapiens; settings: Homo sapiens, OCI-AML2;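 further: growth inhibition of OCI-AML2 cells, read out with a cell viability assay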
Description: SANGER: Inhibition of human OCI-AML2 cell growth in a cell viability assay.

OCUB-M = type: functional, cell-based; settings: Homo sapiens;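 further: growth inhibition of the cancer cell line, read out through a cell viability assay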
Description: SANGER: Inhibition of human OCUB-M cell growth in a cell viability assay.

QIMR-WIL = type: functional, cell-based, Homo sapiens; settings: Homo sapiens, QIMR-WIL;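 further: growth inhibition of QIMR-WIL cells, read out with a cell viability assay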
Description: SANGER: Inhibition of human QIMR-WIL cell growth in a cell viability assay.

SK-UT-1 = type: functional, cell-based, Homo sapiens; settings: Homo sapiens, SK-UT-1;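 further: growth inhibition of SK-UT-1 cells, measured by a cell viability assay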
Description: SANGER: Inhibition of human SK-UT-1 cell growth in a cell viability assay.

SW872 = type: functional, cell-based, Homo sapiens; settings: Homo sapiens, SW872;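 further: growth inhibition of SW872 cells, read out by a viability assay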
Description: SANGER: Inhibition of human SW872 cell growth in a cell viability assay.

SW982 = type: functional, cell-based; settings: Homo sapiens;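 further: growth inhibition of SW982 cells, read out with a cell viability assay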
Description: SANGER: Inhibition of human SW982 cell growth in a cell viability assay.

A388 = type: functional, cell-based; settings: Homo sapiens;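 further: growth inhibition of human A388 cells, read out with a cell viability assay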
Description: SANGER: Inhibition of human A388 cell growth in a cell viability assay.

A704 = type: functional, cell-based; settings: Homo sapiens;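 further: growth inhibition of human A704 cells, read out with a cell viability assay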
Description: SANGER: Inhibition of human A704 cell growth in a cell viability assay.

ACN = type: functional, cell-based, Homo sapiens; settings: Homo sapiens, ACN;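 further: growth inhibition of the human ACN cell line, read out via cell viability testing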
Description: SANGER: Inhibition of human ACN cell growth in a cell viability assay.

BB30-HNC = type: functional, cell-based, Homo sapiens; settings: Homo sapiens, BB30-HNC;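 further: growth inhibition of the cultured cell line, read out by a cell viability assay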
Description: SANGER: Inhibition of human BB30-HNC cell growth in a cell viability assay.

TE-5 = type: functional, cell-based, Homo sapiens; settings: Homo sapiens, TE-5;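 further: inhibition of cell growth, read out by a cell viability assay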
Description: SANGER: Inhibition of human TE-5 cell growth in a cell viability assay.

TE-8 = type: functional, cell-based, Homo sapiens; settings: Homo sapiens, TE-8;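 further: growth inhibition of TE-8 cells, measured with a cell viability readout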
Description: SANGER: Inhibition of human TE-8 cell growth in a cell viability assay.

TE-9 = type: functional, cell-based, Homo sapiens; settings: Homo sapiens, TE-9;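 further: cell growth inhibition, measured with a cell viability readout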
Description: SANGER: Inhibition of human TE-9 cell growth in a cell viability assay.

U-118-MG = type: functional, cell-based; settings: Homo sapiens
Description: SANGER: Inhibition of human U-118-MG cell growth in a cell viability assay.

no-10 = type: functional, cell-based, Homo sapiens; settings: Homo sapiens;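 further: growth inhibition of no-10 cells, read out with a cell viability assay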
Description: SANGER: Inhibition of human no-10 cell growth in a cell viability assay.

no-11 = type: functional, cell-based, Homo sapiens; settings: Homo sapiens;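 further: growth inhibition of human NO-11 cells, read out with a cell viability assay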
Description: SANGER: Inhibition of human no-11 cell growth in a cell viability assay.

EW-18 = type: functional, cell-based, Homo sapiens; settings: Homo sapiens, EW-18; read-out: IC50;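 further: growth inhibition of EW-18 cells, read out by a cell viability assay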
Description: SANGER: Inhibition of human EW-18 cell growth in a cell viability assay.

KY821 = type: functional, cell-based, Homo sapiens; settings: Homo sapiens, KY821;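 further: growth inhibition of human KY821 cells, read out by a cell viability assay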
Description: SANGER: Inhibition of human KY821 cell growth in a cell viability assay.

NCI-H69 = type: functional, cell-based, Homo sapiens; settings: Homo sapiens, NCI-H69;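 further: growth inhibition of the cell line, read out with a cell viability assay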
Description: SANGER: Inhibition of human NCI-H69 cell growth in a cell viability assay.

BV-173 = type: functional, cell-based, Homo sapiens; settings: Homo sapiens, BV-173
Description: SANGER: Inhibition of human BV-173 cell growth in a cell viability assay.

O=C(NCCCNc1nc(Nc2cccc(NC(=O)N3CCCC3)c2)ncc1I)c1cccs1 [BX-795]
pIC50 (D-247MG): 5.49
pIC50 (D-502MG): < 5.30
pIC50 (DOHH-2): 5.84
pIC50 (DOK): 5.36
pIC50 (DU-4475): 5.89
pIC50 (EM-2): 5.63
pIC50 (ES7): 6.08
pIC50 (EW-11): < 5.30
pIC50 (EW-16): 5.37
pIC50 (GAK): < 5.30
pIC50 (HDLM-2): < 5.30
pIC50 (HEL): < 5.30
pIC50 (HT): < 5.30
pIC50 (IST-MEL1): < 5.30
pIC50 (IST-SL1): 5.63
pIC50 (KGN): 5.65
pIC50 (KINGS-1): 5.43
pIC50 (KLE): < 5.30
pIC50 (LAN-6): < 5.30
pIC50 (LC-2-ad): 5.83
pIC50 (LS-513): < 5.30
pIC50 (MMAC-SF): < 5.30
pIC50 (MPP-89): < 5.30
pIC50 (MSTO-211H): < 5.30
pIC50 (NB5): 5.53
pIC50 (NCI-H1092): < 5.30
pIC50 (NCI-H1395): < 5.30
pIC50 (NCI-H1581): < 5.30
pIC50 (NCI-H1623): < 5.30
pIC50 (NCI-H1770): < 5.30
pIC50 (NCI-H1838): < 5.30
pIC50 (NCI-H226): < 5.30
pIC50 (OCI-AML2): < 5.30
pIC50 (OCUB-M): < 5.30
pIC50 (QIMR-WIL): 5.64
pIC50 (SK-UT-1): 5.64
pIC50 (SW872): 5.57
pIC50 (SW982): 6.02
pIC50 (A388): < 5.30
pIC50 (A704): < 5.30
pIC50 (ACN): < 5.30
pIC50 (BB30-HNC): < 5.30
pIC50 (TE-5): < 5.30
pIC50 (TE-8): 5.45
pIC50 (TE-9): < 5.30
pIC50 (U-118-MG): < 5.30
pIC50 (no-10): < 5.30
pIC50 (no-11): < 5.30

NC(=O)c1ccc(N(C(N)=O)c2c(F)cccc2F)nc1-c1ccc(F)cc1F [VX-702]
pIC50 (D-247MG): < 5.70
pIC50 (D-502MG): < 5.70
pIC50 (DOHH-2): < 5.70
pIC50 (DOK): < 5.70
pIC50 (DU-4475): < 5.70
pIC50 (EM-2): < 5.70
pIC50 (ES7): < 5.70
pIC50 (EW-11): < 5.70
pIC50 (EW-16): < 5.70
pIC50 (EW-18): 6.13
pIC50 (GAK): < 5.70
pIC50 (HDLM-2): < 5.70
pIC50 (HEL): < 5.70
pIC50 (HT): < 5.70
pIC50 (IST-MEL1): < 5.70
pIC50 (IST-SL1): < 5.70
pIC50 (KGN): < 5.70
pIC50 (KINGS-1): < 5.70
pIC50 (KLE): < 5.70
pIC50 (KY821): 6.40
pIC50 (LAN-6): < 5.70
pIC50 (LC-2-ad): < 5.70
pIC50 (LS-513): < 5.70
pIC50 (MMAC-SF): < 5.70
pIC50 (MPP-89): < 5.70
pIC50 (MSTO-211H): < 5.70
pIC50 (NB5): < 5.70
pIC50 (NCI-H1092): < 5.70
pIC50 (NCI-H1395): < 5.70
pIC50 (NCI-H1581): < 5.70
pIC50 (NCI-H1623): < 5.70
pIC50 (NCI-H1770): < 5.70
pIC50 (NCI-H1838): < 5.70
pIC50 (NCI-H226): < 5.70
pIC50 (NCI-H69): 7.00
pIC50 (OCI-AML2): < 5.70
pIC50 (OCUB-M): < 5.70
pIC50 (QIMR-WIL): < 5.70
pIC50 (SK-UT-1): < 5.70
pIC50 (SW872): < 5.70
pIC50 (SW982): < 5.70
pIC50 (A388): < 5.70
pIC50 (A704): < 5.70
pIC50 (ACN): < 5.70
pIC50 (BB30-HNC): < 5.70
pIC50 (BV-173): 6.94
pIC50 (TE-5): < 5.70
pIC50 (TE-8): < 5.70
pIC50 (TE-9): < 5.70
pIC50 (U-118-MG): < 5.70
pIC50 (no-10): < 5.70
pIC50 (no-11): < 5.70
